According to PubChem BioAssay AID179 (DTP/NCI, 2004):
Values joined by “and” are separate entries in the source; they are usually repeats but may differ in a detail not shown here. Equal entries are not always repeated. Active and inactive are the calls of the source.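 Rule for the calls: active = compounds giving half or more protection of infected cells from virus-caused growth loss, again on retest; inactive = the rest.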 Where a SMILES comes first, the peptide text is derived from it. Side-chain parts run from the residue outwards. The star is where a group is joined. Cbz = O=C(OCc1ccccc1)*; Boc = CC(C)(C)OC(=O)*

System: CEM cells HIV-1 protection, formazan growth assay
Assay: NCI AIDS Antiviral Assay
Settings: for IC50: measured here: growth of uninfected CEM cells
Outline: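 Category rules: moderately active means at least 50% protection on retest, and confirmed active means 100% protection reproducibly. The underlying data came from a formazan growth assay in HIV-1-infected CEM cells.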

| SMILES | EC50 | IC50 | outcome |
| --- | --- | --- | --- |
| O=C1CCC(NC(=O)c2ccccc2)C(=O)N1 (configuration not stated) | > 200 µM | > 200 µM |  |
| CC(=O)Nc1ccc(S(=O)(=O)N/N=C(/C)C2CCOC2=O)cc1 (configuration not stated) | > 741 µM | > 741 µM |  |
| CCOC(=O)CCC(NC(=O)OCc1ccccc1)C(=O)NC(CCC(=O)OCC)C(=O)NC(CCC(=O)OCC)C(=O)NC(CCC(=O)OCC)C(=O)NC(CCC(=O)OCC)C(=O)NC(CCC(=O)OCC)C(=O)NC(CCC(=O)OCC)C(=O)OCC (configuration not stated) | > 100 µM | 30.2 µM |  |
| COC(=O)c1ccc(/C=C2\Oc3cc(O)ccc3C2=O)cc1 | > 200 µM | 182 µM |  |
| Cc1cc(Cl)cc(S)c1S(=O)(=O)Nc1nnc2c3ccccc3cnn12 | 77.6 µM | > 200 µM |  |
| CC[CH2][Sn]([CH2]CC)([O]C(=O)Cc1ccc(F)cc1)[O][Sn]([CH2]CC)([CH2]CC)[O]C(=O)Cc1ccc(F)cc1 | > 5.13 µM | 3.24 µM |  |
| O=S(=O)([O-])[O-].[OH3+].[OH3+].[OH3+].[Ru+2].c1ccccc1 | > 79.4 µM | > 79.4 µM |  |
| C#Cc1cccc(N2C(=O)CCC2=O)c1 | > 468 µM | 17.4 µM |  |
| CCOC(=O)c1cn(CC)c(=O)n2c1nc1ccccc12 | > 200 µM | 117 µM |  |
| CC(=O)Nc1c(C)cc2c(nc3n2CCC3O)c1[N+](=O)[O-] (configuration not stated) | > 200 µM | > 200 µM |  |
| CC(C)CC(NC(=O)OCc1ccccc1)C(=O)NCCCCC(NC(=O)C(CCCCNC(=O)C(CC(C)C)NC(=O)OCc1ccccc1)NC(=O)C(CCCCNC(=O)C(CC(C)C)NC(=O)OCc1ccccc1)NC(=O)C(CCCCNC(=O)C(CC(C)C)NC(=O)OCc1ccccc1)NC(=O)OC(C)(C)C)C(=O)O (configuration not stated) (Boc-K([Leu-Cbz])K([Leu-Cbz])K([Leu-Cbz])K([Leu-Cbz])-OH; configuration not given here) | > 100 µM | > 100 µM |  |
| Cc1nc2[nH]c(=S)[nH]c(=O)c2[nH]c1=O | > 200 µM | > 200 µM |  |
| CC1=C(C(=O)CC(=O)C(=O)Nc2ccc(Cl)cc2C)Sc2ccccc2N1 | > 117 µM | > 117 µM |  |
| CCN(CC)CCC(=O)NC1c2ccc(Cl)cc2Oc2c(C)cccc21 (configuration not stated) | > 200 µM | 9.55 µM |  |
| CCC1(CC)C(=O)N(C(=O)c2ccc(Cl)cc2)N(C(=O)c2ccccc2Cl)C1=O | > 200 µM | 45.7 µM |  |
| CC(=O)NNc1nc(C)c(C(/C=C/c2ccc(Cl)cc2)=N\NS(=O)(=O)c2ccc(C)cc2)s1 | > 2.88 µM | > 2.88 µM |  |
| COCOc1cc(C)c(C(=O)Oc2cc(C)c(C(=O)OC)c(OCOC)c2C)c(OCOC)c1C=O | > 200 µM | 26.9 µM |  |
| O=C(CC(=O)n1nc(-c2ccccc2)c(N=Nc2ccc(Cl)cc2)c1-c1ccccc1)Nc1cccc(Cl)c1 | > 200 µM | 81.3 µM |  |
| CC12C=C3CC(OC(=O)c4ccccc4)CCC3(O1)c1ccccc12 (configuration not stated) | > 57.5 µM | 32.4 µM |  |
| CC(C)(C)CC(C)(C)c1ccc(OCCO)cc1 |  |  | inactive |
| c1ccc(OCc2nn3c(-c4ccccc4)nnc3s2)cc1 | > 200 µM | > 200 µM |  |

| SMILES | EC50 | IC50 | outcome |
| --- | --- | --- | --- |
| [N-]=[N+]=Nc1c([N+](=O)[O-])c(Cl)nc2ccccc12 | > 20 µM | 10 µM |  |
| O=C(Nc1c(Cl)cc([N+](=O)[O-])cc1Cl)C(=O)C1C(=O)NC(=S)NC1=O | > 89.1 µM | > 89.1 µM |  |
| CCCC/C=C(/C1OC(=O)N2CCC[C@H]2C1(C)C)[Si](C)(C)C (some centres not stated) | > 6.17 µM | > 6.17 µM |  |
| COc1ccc2cc(C(C)C(O)c3cc(F)c(F)c(F)c3F)ccc2c1 (configuration not stated) | 126 µM | > 200 µM |  |
| Brc1ccc2c(C3CN[C@@H](c4c[nH]c5cc(Br)ccc45)CN3)c[nH]c2c1 (some centres not stated) | > 100 µM | 4.57 µM |  |
| COc1ccc(N=Nc2c(N)nn(C)c2N)cc1 |  |  | inactive |
| COc1cccc2c(NNc3ccccc3)c3ccc([N+](=O)[O-])cc3nc12 | > 22.4 µM | 16.2 µM |  |
| Cc1cc2c(c3ncccc13)OCN(Cc1ccc(Cl)cc1)C2 | > 200 µM | 1.07 µM |  |
| Cc1ccc2ccccc2c1NC1=NCCO1 | > 200 µM | 107 µM |  |
| COc1ccccc1Cc1nc(-c2ccccc2)nn(C2OC(COC(C)=O)C(OC(C)=O)C(OC(C)=O)C2OC(C)=O)c1=S (configuration not stated) |  |  | inactive |
| CCC1(C)NN=c2s/c(=C/c3ccc(OC)cc3)c(=O)n2N1 (configuration not stated) |  |  | inactive |
| CC(=O)OCC1OC(Sc2nc(-c3ccc(Cl)cc3)c(C#N)c(=O)n2C2OC(COC(C)=O)C(OC(C)=O)C(OC(C)=O)C2OC(C)=O)C(OC(C)=O)C(OC(C)=O)C1OC(C)=O (configuration not stated) | > 100 µM | 18.6 µM | inactive |
| CCC1=CCC(P(=O)(c2ccccc2)c2ccccc2)CC1C (configuration not stated) | > 11.5 µM | > 11.5 µM |  |
| O=S(=O)(O)c1cc2cc(S(=O)(=O)O)c(O)cc2cc1O |  |  | inactive |
| CC1=NN(c2ccccc2)C(=O)C1N=Nc1ccc(S(=O)(=O)Nc2cc(C)nc(C)n2)cc1 (configuration not stated) |  |  | inactive |
| C=CCC12CC(C)OC1=Nc1ccccc1NC2=O (configuration not stated) | > 200 µM | > 200 µM |  |
| CSc1nc(N)c(NC2OC(CO)C(O)C2O)c(=O)[nH]1 (configuration not stated) | 81.3 µM and > 200 µM | 110 µM and 112 µM |  |
| CCN(CC)C(C)(O)CN (configuration not stated) | > 200 µM | > 200 µM |  |
| CC(=O)Oc1ccccc1C(=O)Nc1ccc(S(=O)(=O)c2ccc(NC(=O)c3ccccc3OC(C)=O)cc2)cc1 | > 200 µM | > 200 µM |  |
| Cc1cn(CC2=NC3CCCCC3N2)c(=O)[nH]c1=O (configuration not stated) | > 200 µM | > 200 µM |  |
